Several values for one entry are separate records, joined by “and”; a condition that tells them apart may be missing. Identical values can stand only once. Like-named read-outs stand apart in the source and are kept apart here.
Experiments:
PI3K-γ = PI3K-γ (Homo sapiens, UniProt P48736); experiment: PI3K-gamma fluorescence polarization assay
[1] = tested on: human prostate LNCap tumor cell line; experiment: In vitro cell culture growth assay (MTS), LNCap; conditions: Homo sapiens, LNCaP, 72 h, read-out: IC50 LNCap
PI3K-α = PI3K-α (Homo sapiens, UniProt P42336); experiment: PI3K-alpha fluorescence polarization assay; conditions: read-out: IC50 PI3Kα
PI3K-α, sequence (P42336 whole entry, species assumed): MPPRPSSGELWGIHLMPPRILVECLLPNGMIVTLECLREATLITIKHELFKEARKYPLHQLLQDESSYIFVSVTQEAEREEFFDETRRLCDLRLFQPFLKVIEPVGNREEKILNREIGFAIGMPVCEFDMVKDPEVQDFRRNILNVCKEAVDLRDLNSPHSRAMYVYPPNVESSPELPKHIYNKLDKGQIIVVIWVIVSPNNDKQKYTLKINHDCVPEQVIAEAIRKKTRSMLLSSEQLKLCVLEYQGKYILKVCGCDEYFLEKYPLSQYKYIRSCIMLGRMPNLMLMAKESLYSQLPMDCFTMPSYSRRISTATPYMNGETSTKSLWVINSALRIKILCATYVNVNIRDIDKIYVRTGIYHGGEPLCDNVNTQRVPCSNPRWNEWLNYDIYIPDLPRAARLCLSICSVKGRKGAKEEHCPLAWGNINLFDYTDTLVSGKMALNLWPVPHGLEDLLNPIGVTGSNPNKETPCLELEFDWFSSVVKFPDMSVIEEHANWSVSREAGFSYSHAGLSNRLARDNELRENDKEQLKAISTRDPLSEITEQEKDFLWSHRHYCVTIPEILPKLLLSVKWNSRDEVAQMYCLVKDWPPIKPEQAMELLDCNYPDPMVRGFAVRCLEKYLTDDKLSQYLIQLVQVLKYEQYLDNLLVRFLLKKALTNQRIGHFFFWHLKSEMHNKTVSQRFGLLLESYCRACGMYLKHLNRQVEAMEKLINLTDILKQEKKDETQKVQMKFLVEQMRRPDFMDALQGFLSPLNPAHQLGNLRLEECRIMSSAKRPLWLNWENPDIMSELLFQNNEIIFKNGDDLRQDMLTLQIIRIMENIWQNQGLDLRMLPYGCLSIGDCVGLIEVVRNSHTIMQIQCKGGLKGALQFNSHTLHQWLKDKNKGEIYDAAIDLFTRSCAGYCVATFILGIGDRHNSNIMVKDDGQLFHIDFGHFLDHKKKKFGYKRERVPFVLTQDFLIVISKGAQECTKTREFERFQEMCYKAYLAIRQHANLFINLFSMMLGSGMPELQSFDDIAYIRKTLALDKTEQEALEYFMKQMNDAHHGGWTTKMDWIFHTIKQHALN
PI3K-α, sequence (P27986 whole entry partner, species assumed): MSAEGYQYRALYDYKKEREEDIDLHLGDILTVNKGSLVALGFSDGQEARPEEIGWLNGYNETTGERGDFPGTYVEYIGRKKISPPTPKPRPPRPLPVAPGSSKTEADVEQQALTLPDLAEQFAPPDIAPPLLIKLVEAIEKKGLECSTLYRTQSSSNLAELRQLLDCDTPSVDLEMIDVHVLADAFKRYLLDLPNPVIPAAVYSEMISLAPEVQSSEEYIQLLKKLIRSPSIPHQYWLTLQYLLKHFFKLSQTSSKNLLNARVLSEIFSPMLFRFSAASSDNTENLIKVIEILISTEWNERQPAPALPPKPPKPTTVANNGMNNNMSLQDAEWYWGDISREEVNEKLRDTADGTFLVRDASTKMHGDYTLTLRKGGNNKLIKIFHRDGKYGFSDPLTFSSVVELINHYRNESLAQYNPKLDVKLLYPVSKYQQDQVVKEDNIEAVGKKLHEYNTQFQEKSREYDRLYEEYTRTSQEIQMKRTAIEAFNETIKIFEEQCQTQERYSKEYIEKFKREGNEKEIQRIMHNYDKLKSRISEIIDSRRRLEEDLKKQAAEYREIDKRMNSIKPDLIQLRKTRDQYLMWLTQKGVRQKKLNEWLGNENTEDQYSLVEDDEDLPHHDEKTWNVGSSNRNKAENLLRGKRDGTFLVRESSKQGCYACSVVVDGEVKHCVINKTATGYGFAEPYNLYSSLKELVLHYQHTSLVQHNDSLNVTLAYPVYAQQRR

Human mTOR (FLAG-TOR) = Human mTOR (FLAG-TOR) (Homo sapiens, UniProt P42345); experiment: mTOR kinase assay (DELFIA format, purified enzyme); assay type: biochemical; conditions: read-out: IC50 mTOR
Human mTOR (FLAG-TOR), sequence (P42345 1360-2549 limits assumed): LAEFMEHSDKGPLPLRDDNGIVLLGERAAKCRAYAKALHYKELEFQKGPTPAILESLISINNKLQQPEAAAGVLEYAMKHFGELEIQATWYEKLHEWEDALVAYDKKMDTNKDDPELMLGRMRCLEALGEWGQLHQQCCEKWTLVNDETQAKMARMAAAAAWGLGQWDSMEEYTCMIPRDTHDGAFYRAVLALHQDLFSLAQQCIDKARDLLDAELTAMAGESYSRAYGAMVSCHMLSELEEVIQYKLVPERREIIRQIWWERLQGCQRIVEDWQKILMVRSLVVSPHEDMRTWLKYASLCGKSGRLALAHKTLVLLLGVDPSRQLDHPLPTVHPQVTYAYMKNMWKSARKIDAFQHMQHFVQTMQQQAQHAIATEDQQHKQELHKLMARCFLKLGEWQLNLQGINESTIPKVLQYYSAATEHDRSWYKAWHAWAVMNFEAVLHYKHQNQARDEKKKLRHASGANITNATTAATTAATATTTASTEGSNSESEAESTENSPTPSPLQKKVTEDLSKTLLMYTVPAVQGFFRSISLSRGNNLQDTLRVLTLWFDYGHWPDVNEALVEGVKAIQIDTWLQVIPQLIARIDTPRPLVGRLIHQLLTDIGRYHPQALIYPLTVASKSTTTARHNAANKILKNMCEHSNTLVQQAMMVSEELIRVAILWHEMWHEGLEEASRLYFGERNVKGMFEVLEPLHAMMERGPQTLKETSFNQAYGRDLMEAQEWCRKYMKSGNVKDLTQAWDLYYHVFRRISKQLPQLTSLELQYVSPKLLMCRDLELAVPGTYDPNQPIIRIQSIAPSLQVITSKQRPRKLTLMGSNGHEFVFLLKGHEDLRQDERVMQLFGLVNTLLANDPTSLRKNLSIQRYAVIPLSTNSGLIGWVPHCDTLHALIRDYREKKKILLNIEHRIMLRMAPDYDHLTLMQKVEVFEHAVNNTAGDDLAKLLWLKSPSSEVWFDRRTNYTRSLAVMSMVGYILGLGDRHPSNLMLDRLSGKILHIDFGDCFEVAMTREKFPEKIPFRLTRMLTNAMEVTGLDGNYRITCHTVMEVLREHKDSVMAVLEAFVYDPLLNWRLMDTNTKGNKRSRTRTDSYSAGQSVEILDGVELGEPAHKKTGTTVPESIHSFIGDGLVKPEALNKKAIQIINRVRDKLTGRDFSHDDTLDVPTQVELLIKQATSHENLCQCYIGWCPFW

PI3K-γ, sequence (P48736 whole entry, species assumed): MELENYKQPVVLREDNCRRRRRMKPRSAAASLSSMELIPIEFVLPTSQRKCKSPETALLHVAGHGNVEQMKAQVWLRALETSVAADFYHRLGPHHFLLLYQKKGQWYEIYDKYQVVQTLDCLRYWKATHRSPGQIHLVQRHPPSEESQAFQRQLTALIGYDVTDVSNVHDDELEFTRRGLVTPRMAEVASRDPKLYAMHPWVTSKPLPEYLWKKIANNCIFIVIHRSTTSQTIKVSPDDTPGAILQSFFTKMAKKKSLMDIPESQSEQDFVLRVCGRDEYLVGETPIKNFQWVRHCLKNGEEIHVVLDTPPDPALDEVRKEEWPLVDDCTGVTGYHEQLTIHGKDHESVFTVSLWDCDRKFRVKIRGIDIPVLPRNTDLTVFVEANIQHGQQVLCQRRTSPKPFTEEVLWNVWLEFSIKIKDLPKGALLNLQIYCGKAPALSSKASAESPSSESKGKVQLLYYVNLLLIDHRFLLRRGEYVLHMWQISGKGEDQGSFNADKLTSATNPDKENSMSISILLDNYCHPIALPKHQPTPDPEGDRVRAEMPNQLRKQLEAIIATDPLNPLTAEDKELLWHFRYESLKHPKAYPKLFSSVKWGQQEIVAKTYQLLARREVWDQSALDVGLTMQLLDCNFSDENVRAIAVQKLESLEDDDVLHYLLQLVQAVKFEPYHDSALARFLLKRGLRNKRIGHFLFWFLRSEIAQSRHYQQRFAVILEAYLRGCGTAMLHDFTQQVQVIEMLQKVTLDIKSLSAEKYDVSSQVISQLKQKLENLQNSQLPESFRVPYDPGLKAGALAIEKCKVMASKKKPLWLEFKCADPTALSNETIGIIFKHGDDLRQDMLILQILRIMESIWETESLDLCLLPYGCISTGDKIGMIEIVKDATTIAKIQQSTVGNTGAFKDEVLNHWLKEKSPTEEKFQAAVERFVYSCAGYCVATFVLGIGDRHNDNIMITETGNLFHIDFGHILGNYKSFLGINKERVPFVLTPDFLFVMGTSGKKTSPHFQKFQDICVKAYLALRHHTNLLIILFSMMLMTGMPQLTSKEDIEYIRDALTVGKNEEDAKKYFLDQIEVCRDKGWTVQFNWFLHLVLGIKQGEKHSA

| Compound | IC50 (PI3K-γ; read-out: IC50 PI3Kγ) [nM] | IC50 [1] [nM] | IC50 (PI3K-α) [nM] | IC50 (Human mTOR (FLAG-TOR)) | IC50 (PI3K-γ; read-out: IC50 PI3Kγ, listed as 358) [nM] | IC50 (PI3K-α; listed as 358) [nM] | IC50 (PI3K-γ) [nM] |
| --- | --- | --- | --- | --- | --- | --- | --- |
| O=C(NCCF)Nc1ccc(-c2nc(Nc3ccc(N4CCNCC4)cc3)nc(N3CC4CCC(C3)O4)n2)cc1 [Example 327, 1-(2-fluoroethyl)-3-(4-{4-(8-oxa-3-azabicyclo[3.2.1]oct-3-yl)-6-[(4-piperazin-1-ylphenyl)amino]-1,3,5-triazin-2-yl}phenyl)urea] | 5900 | 400 | 394 | 6.3 nM | – | – | – |
| CCNC(=O)Nc1ccc(-c2nc(NC3CCNCC3)nc(N3C4CCC3COC4)n2)cc1 [Example 360, 1-(4-(4-(3-oxa-8-azabicyclo[3.2.1]octan-8-yl)-6-(piperidin-4-ylamino)-1,3,5-triazin-2-yl)phenyl)-3-ethylurea] | – | 10000 | 6670 | 82 nM | – | – | > 10000 |
| O=C(Nc1ccc(CN2CCNCC2)cc1)Nc1ccc(-c2nc(N3C4CCC3COC4)nc(N3C4CCC3COC4)n2)cc1 [Example 366, 1-(4-(4,6-di(3-oxa-8-azabicyclo[3.2.1]octan-8-yl)-1,3,5-triazin-2-yl)phenyl)-3-(4-(piperazin-1-ylmethyl)phenyl)urea] | 3000 | 2.8 | 585 | 1.1 nM | – | – | – |
| NCc1ccc(NC(=O)Nc2ccc(-c3nc(N4C5CCC4COC5)nc(N4C5CCC4COC5)n3)cc2)cc1 [Example 368, 1-(4-(aminomethyl)phenyl)-3-(4-(4,6-di(3-oxa-8-azabicyclo[3.2.1]octan-8-yl)-1,3,5-triazin-2-yl)phenyl)urea] | 1940 | 0.7 | 109 | 0.68 nM | – | – | – |

Continued, in another order:

| IC50 (PI3K-γ; read-out: IC50 PI3Kγ) [nM] | IC50 [1] [nM] | IC50 (PI3K-α) [nM] | IC50 (Human mTOR (FLAG-TOR)) | IC50 (PI3K-γ; read-out: IC50 PI3Kγ, listed as 358) [nM] | IC50 (PI3K-α; listed as 358) [nM] | Compound | IC50 (PI3K-γ) [nM] |
| --- | --- | --- | --- | --- | --- | --- | --- |
| 14000 | 1500 | 261 | 4.6 nM | – | – | O=C(NCCO)Nc1ccc(-c2nc(Nc3ccc(N4CCNCC4)cc3)nc(N3CC4CCC(C3)O4)n2)cc1 [Example 328, 1-(2-hydroxyethyl)-3-(4-{4-(8-oxa-3-azabicyclo[3.2.1]oct-3-yl)-6-[(4-piperazin-1-ylphenyl)amino]-1,3,5-triazin-2-yl}phenyl)urea] | – |
| 385 | 5900 | 9.5 | 0.68 nM | 363 | 9 | NC(=O)c1ccc(NC(=O)Nc2ccc(-c3nc(Nc4ccc(N5CCNCC5)cc4)nc(N4CC5CCC(C4)O5)n3)cc2)cc1 [Example 329, 4-{[(4-{4-(8-oxa-3-azabicyclo[3.2.1]oct-3-yl)-6-[(4-piperazin-1-ylphenyl)amino]-1,3,5-triazin-2-yl}phenyl)carbamoyl]amino}benzamide] | – |
| 827 | 260 | 42 | 3.3 nM and 3.4 nM | – | – | O=C(Nc1ccccc1)Nc1ccc(-c2nc(Nc3ccc(N4CCNCC4)cc3)nc(N3CC4CCC(C3)O4)n2)cc1 [Example 330, 1-(4-{4-(8-oxa-3-azabicyclo[3.2.1]oct-3-yl)-6-[(4-piperazin-1-ylphenyl)amino]-1,3,5-triazin-2-yl}phenyl)-3-phenylurea] | – |
| 732 | < 0.8 | 13.5 | 0.24 nM | – | – | CN(C)CC(=O)Nc1ccc(NC(=O)Nc2ccc(-c3nc(N4CC5CCC(C4)O5)nc(N4CC5CCC(C4)O5)n3)cc2)cc1 [Example 352, N-[4-({[4-(4,6-di-8-oxa-3-azabicyclo[3.2.1]oct-3-yl-1,3,5-triazin-2-yl)phenyl]carbamoyl}amino)phenyl]-N2,N2-dimethylglycinnamide] | – |
| 501 | < 0.8 | 8.5 | 0.22 nM | – | – | O=C(CN1CCCC1)Nc1ccc(NC(=O)Nc2ccc(-c3nc(N4CC5CCC(C4)O5)nc(N4CC5CCC(C4)O5)n3)cc2)cc1 [Example 353, N-[4-({[4-(4,6-di-8-oxa-3-azabicyclo[3.2.1]oct-3-yl-1,3,5-triazin-2-yl)phenyl]carbamoyl}amino)phenyl]-2-pyrrolidin-1-ylacetamide] | – |

Source: patent publication US20090304692A1, “TRIAZINE COMPOUNDS AS PI3 KINASE AND MTOR INHIBITORS” (Wyeth, priority 2008, published 2009)
